Results reported in EPA's ToxRefDB 2.

What was measured:
mouse [1] = details: Carcinogenicity; cd1; Oral; Feed; dose end: 88 week; group: systemic; systemic / pathology microscopic / liver / hypertrophy + systemic / pathology microscopic / liver / inflammation + systemic / pathology …
rabbit [2] = details: Prenatal developmental toxicity study, new zealand white, Oral, Gavage/Intubation, dose end: 18 GD
rat [3] = details: Subchronic oral toxicity in rodents, wistar, Feed, dose end: 13 week, group: systemic, systemic / clinical chemistry / calcium / calcium + systemic / clinical chemistry / creatinine / creatinine + systemic / clinical chemistry…
dog [4] = details: Subchronic oral toxicity in nonrodent, beagle, Feed, dose end: 13 week, group: systemic, systemic / clinical chemistry / alkaline phosphatase (alp/alk) / alkaline phosphatase (alp/alk) + systemic / clinical chemistry / gamma …
rat [5] = details: Prenatal developmental toxicity study, wistar, Oral, Gavage/Intubation, dose end: 15 GD
dog [6] = details: Chronic toxicity; beagle; Oral; Feed; dose end: 52 week; group: systemic; systemic / clinical chemistry / cytochrome p450, nos / cytochrome p450, nos + systemic / clinical chemistry / glutathione-s-transferase / …
rabbit [7] = details: Prenatal developmental toxicity study, new zealand white, Oral, Gavage/Intubation, dose end: 18 GD; remark: listed apart in the source
rat [8] = details: Sub-acute repeat dose toxicity, wistar, Oral, Feed, dose end: 4 week, group: systemic
rat [9] = details: Sub-acute repeat dose toxicity; wistar; Oral; Feed; dose end: 4 week; group: systemic; systemic / clinical chemistry / lactic acid dehydrogenase (ldh) / lactic acid dehydrogenase (ldh) + systemic / organ weight / liver / …
mouse [10] = details: Subchronic oral toxicity in rodents, cd1, Feed, dose end: 13 week, group: systemic, systemic / in life observation / body weight / body weight gain + systemic / organ weight / liver / absolute + systemic / organ weight / …
rat [11] = details: Subchronic oral toxicity in rodents, wistar, Feed, dose end: 13 week, group: systemic
rabbit [12] = details: Sub-acute dermal toxicity, new zealand white, Topical, dose end: 21 day, group: systemic, systemic / in life observation / clinical signs / desquamation + systemic / in life observation / clinical signs / erythema + systemic / …
rat [13] = details: Sub-acute dermal toxicity, wistar, Topical, dose end: 28 day, group: systemic, systemic / clinical chemistry / cholesterol / cholesterol + systemic / clinical chemistry / globulins / globulins + systemic / clinical …
rat [14] = details: Subchronic oral toxicity in rodents, wistar, Feed, dose end: 13 week, group: systemic; remark: listed apart in the source
[15] = group: developmental, systemic / in life observation / body weight / fetal weight + developmental / developmental malformation / bone / [other] + developmental / …
[16] = group: maternal, reproductive / reproductive performance / postimplantation loss / postimplantation loss + systemic / in life observation / body weight / …
[17] = group: developmental, developmental / developmental malformation / bone / full supernumerary
[18] = group: developmental, developmental / developmental malformation / bone / full supernumerary + developmental / developmental malformation / bone / incomplete …
[19] = group: maternal, systemic / in life observation / body weight / body weight gain
[20] = group: maternal, systemic / in life observation / body weight / body weight gain + reproductive / reproductive performance / postimplantation loss / …
[21] = group: developmental, developmental / developmental malformation / general / [other] + developmental / developmental malformation / limb / malrotated
[22] = group: maternal, systemic / in life observation / body weight / body weight gain + systemic / in life observation / food consumption / food consumption
[23] = systemic / pathology microscopic / liver / lipid deposition + systemic / pathology microscopic / liver / vacuolization
[24] = systemic / pathology microscopic / liver / lipid deposition + systemic / pathology microscopic / liver / vacuolization + systemic / clinical…
[25] = systemic / pathology microscopic / thyroid gland / hypertrophy
[26] = systemic / in life observation / body weight / body weight gain + systemic / clinical chemistry / alanine aminotransferase (alt/sgpt) / …

SMILES: CC(C1CC1)C(O)(Cn1cncn1)c1ccc(Cl)cc1 (stereo not drawn) [Cyproconazole]
- LEL (mouse [1]): 13.2 mg/kg/day
- LOAEL (mouse [1]): 13.2 mg/kg/day
- NEL (mouse [1]): 1.84 mg/kg/day
- NOAEL (mouse [1]): 1.84 mg/kg/day
- LOAEL (rabbit [2]; group: developmental, systemic / in life observation / body weight / fetal weight): 60 mg/kg/day
- LEL (rabbit [2]; [15]): 60 mg/kg/day
- NEL (rabbit [2]; [15]): 10 mg/kg/day
- NOAEL (rabbit [2]; [15]): 10 mg/kg/day
- LEL (rabbit [2]; [16]): 60 mg/kg/day
- LOAEL (rabbit [2]; [16]): 60 mg/kg/day
- NEL (rabbit [2]; [16]): 10 mg/kg/day
- NOAEL (rabbit [2]; [16]): 10 mg/kg/day
- LEL (rat [3]): 1.5 mg/kg/day
- LOAEL (rat [3]): > 21.4 mg/kg/day
- NEL (rat [3]): < 1.5 mg/kg/day
- NOAEL (rat [3]): ≥ 21.4 mg/kg/day
- LEL (dog [4]): 20 mg/kg/day
- LOAEL (dog [4]): 20 mg/kg/day
- NEL (dog [4]): 4 mg/kg/day
- NOAEL (dog [4]): 4 mg/kg/day
- LEL (rat [5]; [17]): 12 mg/kg/day
- LOAEL (rat [5]; [17]): 12 mg/kg/day
- NEL (rat [5]; [18]): 6 mg/kg/day
- NOAEL (rat [5]; [18]): 6 mg/kg/day
- LEL (rat [5]; [19]): 12 mg/kg/day
- LOAEL (rat [5]; [19]): 12 mg/kg/day
- NEL (rat [5]; [20]): 6 mg/kg/day
- NOAEL (rat [5]; [20]): 6 mg/kg/day
- LEL (dog [6]): 3.2 mg/kg/day
- LOAEL (dog [6]): 3.2 mg/kg/day
- NEL (dog [6]): 1 mg/kg/day
- NOAEL (dog [6]): 1 mg/kg/day
- LOAEL (rabbit [7]; group: developmental, developmental / developmental malformation / general / [other]): 10 mg/kg/day
- LEL (rabbit [7]; [21]): 10 mg/kg/day
- NEL (rabbit [7]; [21]): 2 mg/kg/day
- NOAEL (rabbit [7]; [21]): 2 mg/kg/day
- LOAEL (rabbit [7]; [19]): 50 mg/kg/day
- LEL (rabbit [7]; [22]): 50 mg/kg/day
- NEL (rabbit [7]; [22]): 10 mg/kg/day
- NOAEL (rabbit [7]; [22]): 10 mg/kg/day
- LEL (rat [8]; [23]): 527 mg/kg/day
- LOAEL (rat [8]; [23]): 527 mg/kg/day
- NEL (rat [8]; [24]): 155 mg/kg/day
- NOAEL (rat [8]; [24]): 155 mg/kg/day
- LEL (rat [9]): 25.3 mg/kg/day
- LOAEL (rat [9]): 25.3 mg/kg/day
- NEL (rat [9]): 8.14 mg/kg/day
- NOAEL (rat [9]): 8.14 mg/kg/day
- LEL (mouse [10]): 43.8 mg/kg/day
- LOAEL (mouse [10]): 43.8 mg/kg/day
- NEL (mouse [10]): 2.2 mg/kg/day
- NOAEL (mouse [10]): 2.2 mg/kg/day
- LOAEL (rat [11]; systemic / organ weight / liver / absolute + systemic / organ weight / liver / relative to body weight + systemic / pathology microscopic / …): 24.7 mg/kg/day
- LEL (rat [11]; [25]): 1.4 mg/kg/day
- NEL (rat [11]; [25]): < 1.4 mg/kg/day
- NOAEL (rat [11]; systemic / pathology microscopic / thyroid gland / hypertrophy + systemic / organ weight / liver / absolute + systemic / organ weight / …): 1.4 mg/kg/day
- LEL (rabbit [12]): 1000 mg/kg/day
- LOAEL (rabbit [12]): 1000 mg/kg/day
- NEL (rabbit [12]): 300 mg/kg/day
- NOAEL (rabbit [12]): 300 mg/kg/day
- LEL (rat [13]): 100 mg/kg/day
- LOAEL (rat [13]): 100 mg/kg/day
- NEL (rat [13]): 10 mg/kg/day
- NOAEL (rat [13]): 10 mg/kg/day
- LOAEL (rat [14]; systemic / in life observation / body weight / body weight gain): 27.3 mg/kg/day
- NEL (rat [14]; [26]): 1.5 mg/kg/day
- NOAEL (rat [14]; [26]): 1.5 mg/kg/day
- LEL (rat [14]; systemic / in life observation / body weight / body weight gain + systemic / in life observation / food consumption / food efficiency + …): 27.3 mg/kg/day
